Measurements published in publication PMC3973950, “Synthesis of 5-arylidine amino-1,3,4-thiadiazol-2-[(N-substituted benzyol)]sulphonamides endowed with potent antioxidants and anticancer activity induces growth inhibition in HEK293, BT474 and NCI-H226 cells” (Medicinal Chemistry Research, 2013).

Experiments:
[1] = system: BT474 (breast cancer cell line); test: In vitro cytotoxicity by MTT assay, BT474; type: cell-based; details: Homo sapiens, 72 h, read-out: % cytotoxicity (100 − % cell survival) of BT474 cell line; for cytotoxicity at 0.005 µM: BT-474, 0.005 μM; for cytotoxicity at 0.015 µM: BT-474, 0.015 μM; for cytotoxicity at 0.045 µM: BT-474, 0.045 μM; for cytotoxicity at 0.13 µM: BT-474, 0.13 μM; for cytotoxicity at 0.41 µM: BT-474, 0.41 μM; for cytotoxicity at 1.23 µM: BT-474, 1.23 μM; for cytotoxicity at 3.7 µM: BT-474, 3.7 μM; for cytotoxicity at 11.11 µM: BT-474, 11.11 μM; for cytotoxicity at 33.33 µM: BT-474, 33.33 μM; for cytotoxicity at 100 µM: BT-474, 100 μM
Protocol: (§1) The cancer cell line cultures of HEK 293 ([…]), BT474 (breast cancer cell line) and NCI-H226 (lung cancer) were obtained from Pasteur Institute of India, Coonoor, India, and were cultured in RPMI-1640 and 10 % heat-[…] New born calf serum with antibiotics [penicillin ([…]), streptomycin (100 μg/mL) and amphotericin B (25 μg/mL)]. The cells were maintained at 37 °C in a humidified atmosphere with 5 % CO2 and were subcultured twice a week.
(§2) The monolayer cell culture (100 μL) was trypsinized, and the cell count was adjusted to […] using medium containing 10 % new born calf serum. To each well of the 96-well microtitre plate, the diluted cell suspension (approximately 10,000 cells) (0.1 mL) was added and kept for 24 h in incubator at 37 °C in 5 % CO2 atmosphere for cell monolayer formation. After 24 h, when a partial monolayer was formed at the bottom of the well, the supernatant was flicked off, the monolayer was washed once, and different drugs, i.e. synthesized compounds (100 μL), were added to the cells in microtitre plates. The plates were then incubated at 37 °C for 3 days in 5 % CO2 atmosphere, and microscopic examination was carried out and observations recorded every 24 h. After 72 h, the sample solution in the wells was flicked off; MTT dye ([…]) was added to each well; plates were gently shaken and incubated for 4 h at 37 °C in 5 % CO2 incubator. The supernatant was removed and propanol (50 μL) was added; the plates were gently shaken to solubilize the formed formazan. The absorbance was measured using a microplate reader at a wavelength of 490 nm (Edmondson et al., [1988]; Prasad et al., [2005]; Chiruvella et al., [2008]; Chang et al., [2007]).

[2] = system: NCI-H226 (lung cancer cell line); test: In vitro cytotoxicity by MTT assay, NCI-H226; type: cell-based; details: Homo sapiens, 72 h, read-out: % Cytotoxicity (100 − % cell survival) of NCI-H226 cell line; for cytotoxicity at 0.005 µM: NCI-H226, 0.005 μM; for cytotoxicity at 0.045 µM: NCI-H226, 0.045 μM; for cytotoxicity at 0.13 µM: NCI-H226, 0.13 μM; for cytotoxicity at 0.41 µM: NCI-H226, 0.41 μM; for cytotoxicity at 1.23 µM: NCI-H226, 1.23 μM; for cytotoxicity at 3.7 µM: NCI-H226, 3.7 μM; for cytotoxicity at 11.11 µM: NCI-H226, 11.11 μM; for cytotoxicity at 33.33 µM: NCI-H226, 33.33 μM; for cytotoxicity at 100 µM: NCI-H226, 100 μM
Protocol: as §1, §2

[3] = In vitro cytotoxicity by MTT assay, NCI-H226; type: cell-based; details: human, NCI-H226 lung cancer cells, 0.015 μM, read-out: % Cytotoxicity (100 − % cell survival) of NCI-H226 cell line
Protocol: as §1, §2

[4] = In vitro cytotoxicity by MTT assay, HEK 293; type: cell-based, human; details: human, HEK 293 cells, read-out: % cytotoxicity (100 − % cell survival) of HEK 293 cell line
Protocol: as §1, §2

Row | Compound | cytotoxicity at 0.005 µM [1] [%] | cytotoxicity at 0.015 µM [1] [%] | cytotoxicity at 0.045 µM [1] [%] | cytotoxicity at 0.13 µM [1] [%] | cytotoxicity at 0.41 µM [1] [%] | cytotoxicity at 1.23 µM [1] [%] | cytotoxicity at 3.7 µM [1] [%] | cytotoxicity at 11.11 µM [1] [%] | cytotoxicity at 33.33 µM [1] [%] | cytotoxicity at 100 µM [1] [%] | cytotoxicity at 0.005 µM [2] [%] | cytotoxicity at 0.045 µM [2] [%] | cytotoxicity at 0.13 µM [2] [%] | cytotoxicity at 0.41 µM [2] [%] | cytotoxicity at 1.23 µM [2] [%] | cytotoxicity at 3.7 µM [2] [%] | cytotoxicity at 11.11 µM [2] [%] | cytotoxicity at 33.33 µM [2] [%] | cytotoxicity at 100 µM [2] [%] | cytotoxicity at 72 h, 0.015 µM [3] [%] | further results
1 | Nc1nnc(S(=O)(=O)NC(=O)c2ccc(Cl)cc2)s1 [Compound 4g] | 30.6 | 31.4 | 32.1 | 33.2 | 34.1 | 34.9 | 35.2 | 36.2 | 37.8 | 38.2 | 35.8 | 37 | 37.1 | 37.8 | 38.1 | 39.4 | 40.3 | 41.4 | 41.8 | 36.1 | cytotoxicity at 72 h, 0.005 µM [4]: 39.3%; cytotoxicity at 72 h, 0.015 µM [4]: 40.5%; cytotoxicity at 72 h, 0.045 µM [4]: 41.2%; cytotoxicity at 72 h, 0.13 µM [4]: 43.7%; cytotoxicity at 72 h, 0.41 µM [4]: 45.1%; cytotoxicity at 72 h, 1.23 µM [4]: 45.6%; cytotoxicity at 72 h, 3.7 µM [4]: 46.4%; cytotoxicity at 72 h, 11.11 µM [4]: 47.1%; cytotoxicity at 72 h, 33.33 µM [4]: 48.7%; cytotoxicity at 72 h, 100 µM [4]: 50.2%
2 | CC(=O)Nc1ccc(S(=O)(=O)Nc2nnc(S(=O)(=O)NC(=O)c3ccccc3)s2)cc1 [Compound 6a] | 26 | 27.2 | 28 | 28.6 | 29.8 | 30.4 | 30.9 | 31.3 | 32.1 | 32.7 | 30.5 | 32.2 | 32.9 | 33.6 | 35.6 | 36 | 38.2 | 38.9 | 40.9 | 31.6 | cytotoxicity at 72 h, 0.005 µM [4]: 26.5%; cytotoxicity at 72 h, 0.015 µM [4]: 26.8%; cytotoxicity at 72 h, 0.045 µM [4]: 28.2%; cytotoxicity at 72 h, 0.13 µM [4]: 29.9%; cytotoxicity at 72 h, 0.41 µM [4]: 30.1%; cytotoxicity at 72 h, 1.23 µM [4]: 32.2%; cytotoxicity at 72 h, 3.7 µM [4]: 33.6%; cytotoxicity at 72 h, 11.11 µM [4]: 35%; cytotoxicity at 72 h, 33.33 µM [4]: 35.2%; cytotoxicity at 72 h, 100 µM [4]: 35.4%
3 | CC(=O)Nc1ccc(S(=O)(=O)Nc2nnc(S(=O)(=O)NC(=O)c3ccc(N)cc3)s2)cc1 [Compound 6c] | 33.1 | 33.3 | 34.1 | 35 | 35.4 | 36.7 | 37.1 | 37.9 | 38.2 | 39.4 | 30.4 | 33.6 | 34.1 | 34.8 | 34.9 | 35.1 | 36.5 | 38.3 | 39 | 32.8 | cytotoxicity at 72 h, 0.005 µM [4]: 30.5%; cytotoxicity at 72 h, 0.015 µM [4]: 32%; cytotoxicity at 72 h, 0.045 µM [4]: 32.9%; cytotoxicity at 72 h, 0.13 µM [4]: 33.6%; cytotoxicity at 72 h, 0.41 µM [4]: 34.8%; cytotoxicity at 72 h, 1.23 µM [4]: 35.7%; cytotoxicity at 72 h, 3.7 µM [4]: 36.6%; cytotoxicity at 72 h, 11.11 µM [4]: 37.8%; cytotoxicity at 72 h, 33.33 µM [4]: 38.2%; cytotoxicity at 72 h, 100 µM [4]: 38.8%
4 | CC(=O)Nc1ccc(S(=O)(=O)Nc2nnc(S(=O)(=O)NC(=O)c3ccccc3O)s2)cc1 [Compound 6d] | 26.3 | 27.7 | 28.9 | 29.4 | 30.6 | 31 | 32.1 | 32.9 | 33.3 | 33.9 | 35.5 | 37 | 39.1 | 41.2 | 42 | 43.4 | 45.3 | 47.3 | 49.1 | 36.4 | cytotoxicity at 72 h, 0.005 µM [4]: 33.3%; cytotoxicity at 72 h, 0.015 µM [4]: 34.8%; cytotoxicity at 72 h, 0.045 µM [4]: 35.1%; cytotoxicity at 72 h, 0.13 µM [4]: 35.9%; cytotoxicity at 72 h, 0.41 µM [4]: 36.7%; cytotoxicity at 72 h, 1.23 µM [4]: 37.2%; cytotoxicity at 72 h, 3.7 µM [4]: 38.4%; cytotoxicity at 72 h, 11.11 µM [4]: 39.3%; cytotoxicity at 72 h, 33.33 µM [4]: 40.7%; cytotoxicity at 72 h, 100 µM [4]: 41.3%
